{"source": "PubChem BioAssay AID1259407", "about": "(Chemical Carcinogenesis Research Information System (CCRIS), 2018)", "test_system": "CCRIS mutagenicity, Ames/micronucleus/aberration tests", "assay": "CCRIS mutagenicity studies", "key": {"[1]": {"settings": "Test System: AMES SALMONELLA TYPHIMURIUM, Strain/Indicator: TA100, Metabolic Activation: RAT, LIVER, S-9, PHENOBARBITAL AND 5,6-BENZOFLAVONE, Method: PREINCUBATION"}}, "note": "Calls of active or inactive are those of the source. No rule for the calls is given here."}
{"molecule": "c1cncc(C2=NCCC2)c1", "values": [{"measurement": "mutagenic call", "setting": "End Point: Lymphocytes, Strain/Indicator: Human (male and female) (HPRT)/6-Thioguanine, Metabolic Activation: None", "value": "active; positive (p=0.038)"}]}
{"molecule": "CCCCCCOC(=O)NO", "values": [{"measurement": "mutagenic call", "setting": "Test System: E. COLI, Strain/Indicator: WP2 UVRA, Metabolic Activation: NONE, Method: FLUCTUATION TEST", "value": "active; positive"}]}
{"molecule": "CN(C)CCNC(=O)c1cccc2nc3ccccc3nc12", "values": [{"measurement": "mutagenic call", "setting": "Test System: AMES SALMONELLA TYPHIMURIUM, Strain/Indicator: TA1537, Metabolic Activation: NONE, Method: STANDARD PLATE", "value": "active; positive"}]}
{"molecule": "c1ccc2c(c1)ccc1ncccc12", "values": [{"measurement": "mutagenic call", "setting": "End Point: IN VITRO CHROMOSOMAL ABERRATIONS, Test System: CHL CELLS, Metabolic Activation: RAT, LIVER, S-9, SODIUM PHENOBARBITAL AND 5,6-BENZOFLAVONE", "value": "active; positive (structural changes)"}, {"measurement": "mutagenic call", "setting": "End Point: IN VITRO MICRONUCLEUS, Test System: CHL/IU CELLS, Metabolic Activation: NONE", "value": "active; positive"}, {"measurement": "mutagenic call", "setting": "Test System: AMES SALMONELLA TYPHIMURIUM, Strain/Indicator: TA98, Metabolic Activation: RAT, LIVER, S-9, AROCLOR 1254, Method: STANDARD PLATE", "value": "active; positive"}, {"measurement": "mutagenic call", "setting": "Test System: AMES SALMONELLA TYPHIMURIUM, Strain/Indicator: TA100, Metabolic Activation: RAT, LIVER, S-9, AROCLOR 1254, Method: PREINCUBATION", "value": "active; positive"}, {"measurement": "mutagenic call", "setting": "Test System: AMES SALMONELLA TYPHIMURIUM, Strain/Indicator: TA100, Metabolic Activation: RAT, LIVER, S-9, AROCLOR 1254, Method: STANDARD PLATE", "value": "active; positive"}, {"measurement": "mutagenic call", "setting": "[1]", "value": "active; positive"}]}
{"molecule": "O=C1CCCN1c1ncc([N+](=O)[O-])s1", "values": [{"measurement": "mutagenic call", "setting": "Test System: AMES SALMONELLA TYPHIMURIUM, Strain/Indicator: TA98, Metabolic Activation: NONE, Method: STANDARD PLATE", "value": "active; positive"}, {"measurement": "mutagenic call", "setting": "Test System: AMES SALMONELLA TYPHIMURIUM, Strain/Indicator: TA100, Metabolic Activation: NONE, Method: STANDARD PLATE", "value": "inactive; negative"}]}
{"molecule": "Fc1ccc(F)c2c1ccc1ncccc12", "values": [{"measurement": "mutagenic call", "setting": "[1]", "value": "active; positive"}]}
